The structures appear in SMILES notation. Like-named read-outs stand apart in the source and are kept apart here.

In experiment [1] the test system is Staphylococcus aureus ATCC 6538. The following applies: contact time 5 minutes. The text has this:
The test substance was hydrogen peroxide at 1 ppm and at 0.3%, which was exposed or not exposed to photons with a wavelength from 0.001 nm-845 nm and applied to target, which included a biological medium inoculated with a viable bacteria concentration of Staphylococcus aureus ATCC 6538. Further, it may be appreciated that the control is the same microorganism.

Another experiment deals with E. coli. The experiment can be described thus: FIG. 2 microbial reduction by photon enhanced solution. In kind it is cell-based.
A further experiment relates to microbial counts. The following applies: 1 part per million, 5 minute contact time.

Text for microbial counts: In an example embodiment of a system for progressive reduction of the microbial count in ambient air, a room with 1,000,000 colony forming units (CFUs) is equipped with a system for performing the methods as disclosed herein. A small micron photon/phonon enhanced antimicrobial dry fog of an enhanced oxidizing agent is continuously administered into the ambient air through an existing HVAC system at a concentration of less than 1 part per million.

As to `OO` [1 ppm H2O2 no photon activation, hydrogen peroxide], the “Average CFU/ML” value in experiment [1] came to 4.05E+06 CFU/ML. Moreover, the CFU/ML in experiment [1] (Replicate 1) and in experiment [1] (Replicate 2) was 4.10E+06 CFU/ML in each case.
Consider `OO` [.3% H2O2 no photon activation, hydrogen peroxide], for which, in experiment [1], the “Average CFU/ML” value is 4.05E+06 CFU/ML. Moreover, the CFU/ML turned out to be 4.10E+06 CFU/ML in experiment [1] (Replicate 1) and 4.00E+06 CFU/ML in experiment [1] (Replicate 2).
For the compound `OO` [hydrogen peroxide], the “microbial (E. coli) reduction” value in the experiment with E. coli amounted to 0.0%.
As to `OO` [standard hydrogen peroxide, hydrogen peroxide], in the experiment on microbial counts, the microbial reduction entry is reported as “little or no microbial reduction”.
